{
  "source": "patent US20080200557A1",
  "about": "“Method for Inhibiting Lipid Peroxidation” (CARITAS ST. ELIZABETH HOSPITAL OF BOSTON, INC., priority 2004, published 2008)",
  "key": {"[1]": {"tested_on": "lipid peroxidation induced by lipopolysaccharide (LPS) in mice brain tissues", "test": "LPS-induced lipid peroxidation (TBARS/MDA) in mouse brain tissues", "type": "biochemical", "settings": "C57BI/6J mouse brain"}, "[2]": {"tested_on": "lipid peroxidation induced by lipopolysaccharide (LPS) in rat brain tissues", "test": "LPS-induced lipid peroxidation (TBARS/MDA) in rat brain homogenates", "type": "biochemical, Fisher 344N male rats", "settings": "rat brain homogenate, LPS 400 μg/ml", "description": "N-acetyldopamine, melatonin, 2-thiobarbituric acid, and LPS (Escherichia coli 0127:B8) were purchased from Sigma Chemical Co. (St. Louis, Mo.). The formation of thiobarbituric acid reactive substances (TBARS) was used as index of induced oxidative damage to lipid membranes. Lipid peroxidation was induced with LPS (400 μg/ml).\nBrain tissues from Fisher 344N male rats were homogenized in 20 mM pH 7.4 Tris buffer. The homogenates were then incubated (1 hr) in solvent alone (control) or in solvent+LPS (400 μg/ml), N-acetyldopamine+LPS, NAS+LPS, melatonin+LPS, and N-acetyldopamine+NAS+LPS (for concentrations of N-acetyldopamine, NAS and melatonin, see Results). TBARS were added, and homogenates were incubated for 20 min. in a boiling water bath. After cooling, the absorbance was measured spectrophotometrically at 532 nm. TBARS concentrations were derived from a standard curve of MDA (Oxis International, Portland, Oreg.). Protein was determined by Lowry method (Sigma Chem. Co., St. Louis, Mo.). Results are expressed as mean+S.D. (n=6). Data was treated by one-way ANOVA and Student's t-test."}, "toxic effect of LPS": {"tested_on": "toxic effect of LPS", "settings": "laboratory animals; cited from earlier work"}, "septic shock": {"tested_on": "septic shock", "settings": "patients suffering from septic shock; cited from earlier work"}, "[3]": {"tested_on": "lipid peroxidation induced by FeCl2 in mice brain tissues", "test": "FeCl2-induced lipid peroxidation (TBARS/MDA) in mouse brain tissues", "type": "biochemical, mice C57BI/J6", "settings": "FeCl2 1 mM", "description": "The effect of N-substituted dopamine derivatives on FeCl2-induced oxidative damage was evaluated in mice C57BI/J6 brain tissues.\nBrain tissues from C57BI/J6 […] were homogenized in 20 mM pH 7.4 Tris buffer. The homogenates were then incubated (1 hr) in solvent alone (control) or in solvent+FeCl2, N-acetyldopamine+FeCl2, N-methyldopamine (deoxyepinephrine)+FeCl2, 3-methoxyldopamine+FeCl2, and 4-methoxydopamine (3-hydroxy-4-methoxy phenethylamine HCl)+FeCl2. TBARS were added, and homogenates were incubated for 20 min. in a boiling water bath. After cooling, the absorbance was measured spectrophotometrically at 532 nm. TBARS concentrations were derived from a standard curve of MDA (Oxis International, Portland, Oreg.). Protein was determined by Lowry method (Sigma Chem. Co., St. Louis, Mo.). Results are expressed as mean +S.D. (n=6). Data was treated by one-way ANOVA and Student's t-test"}, "[4]": {"tested_on": "LPS-induced hypotensive shock", "settings": "rats; cited from earlier work"}, "LPS lethal effect": {"tested_on": "LPS lethal effect", "settings": "mice; cited from earlier work"}},
  "data": [
    {"compound": "COc1cc(CCN)ccc1O", "note": "[3-methoxydopamine, 4-hydroxyl-3-methoxy phenethylamine]", "values": [
      {"measurement": "effect on LPS-induced lipid peroxidation (MDA formation), in words", "setting": "[1]; FIGS. 6-7", "result": "inhibited LPS-induced formation of MDA in C57BI/6J mouse brain in a dose-dependent manner"},
      {"measurement": "inhibition of LPS-induced formation of MDA", "setting": "[1]; at 200μ, FIG. 6", "result": 50, "unit": "%"}
    ]},
    {"compound": "COc1ccc2[nH]cc(CCNC(C)=O)c2c1", "note": "[Melatonin, melatonin]", "values": [
      {"measurement": "concentration reaching statistically significant inhibition of LPS-induced lipid peroxidation", "setting": "[2]; FIG. 3", "result": 800, "unit": "µM"},
      {"measurement": "effect on toxic effect of LPS", "setting": "toxic effect of LPS", "result": "counteract the toxic effect of LPS"},
      {"measurement": "effect on lethality", "setting": "septic shock", "result": "prevent lethality"}
    ]},
    {"compound": "CC(=O)NCCc1ccc(O)c(O)c1", "note": "[N-acetyldopamine]", "values": [
      {"measurement": "concentration from which inhibition of LPS-induced formation of MDA starts", "setting": "[2]; 1 hr incubation, FIG. 1", "result": 50, "unit": "µM"},
      {"measurement": "concentration reaching complete inhibition of LPS-induced formation of MDA", "setting": "[2]; 1 hr incubation, FIG. 1", "result": 200, "unit": "µM"},
      {"measurement": "effect on LPS-induced lipid peroxidation (MDA formation), in words", "setting": "[2]; FIGS. 1-2", "result": "inhibited LPS-induced formation of MDA in a dose-dependent manner"}
    ]},
    {"compound": "CNCCc1ccc(O)c(O)c1", "note": "[N-methyldopamine, N-methyldopamine (deoxyepinephrine)]", "values": [
      {"measurement": "concentration from which inhibition of FeCl2-induced formation of MDA starts", "setting": "[3]; FIG. 10", "result": 25, "unit": "µM"},
      {"measurement": "concentration reaching complete inhibition of FeCl2-induced formation of MDA", "setting": "[3]; FIG. 10", "result": 200, "unit": "µM"},
      {"measurement": "effect on FeCl2-induced formation of MDA, in words", "setting": "[3]; FIGS. 8-12", "result": "most prominent effect"}
    ]},
    {"compound": "CC(=O)NCCc1c[nH]c2ccc(O)cc12", "note": "[NAS, N-acetylserotonin]", "values": [
      {"measurement": "protection against LPS-induced hypotensive shock", "setting": "[4]", "result": "protects rats against LPS-induced hypotensive shock"},
      {"measurement": "protection against LPS lethal effect", "setting": "LPS lethal effect", "result": "protects"}
    ]}
  ]
}
